Positions count from the first letter of the chain named.

Here are results for 15 molecules from US20190209539A1, “THIOHYDANTOIN ANDROGEN RECEPTOR ANTAGONISTS FOR THE TREATMENT OF CANCER” (Janssen Pharmaceutica NV, priority 2016, published 2019).

In test [1] the target is T1, F876L mutant Androgen Receptor (AR-F876L) (Homo sapiens, UniProt P10275, F877L).
T1 construct: expressed in transfected cells; host or cells: LNCaP F876L cells with ARE firefly luciferase lentiviral construct
T1 sequence (P10275 1-920 F877L): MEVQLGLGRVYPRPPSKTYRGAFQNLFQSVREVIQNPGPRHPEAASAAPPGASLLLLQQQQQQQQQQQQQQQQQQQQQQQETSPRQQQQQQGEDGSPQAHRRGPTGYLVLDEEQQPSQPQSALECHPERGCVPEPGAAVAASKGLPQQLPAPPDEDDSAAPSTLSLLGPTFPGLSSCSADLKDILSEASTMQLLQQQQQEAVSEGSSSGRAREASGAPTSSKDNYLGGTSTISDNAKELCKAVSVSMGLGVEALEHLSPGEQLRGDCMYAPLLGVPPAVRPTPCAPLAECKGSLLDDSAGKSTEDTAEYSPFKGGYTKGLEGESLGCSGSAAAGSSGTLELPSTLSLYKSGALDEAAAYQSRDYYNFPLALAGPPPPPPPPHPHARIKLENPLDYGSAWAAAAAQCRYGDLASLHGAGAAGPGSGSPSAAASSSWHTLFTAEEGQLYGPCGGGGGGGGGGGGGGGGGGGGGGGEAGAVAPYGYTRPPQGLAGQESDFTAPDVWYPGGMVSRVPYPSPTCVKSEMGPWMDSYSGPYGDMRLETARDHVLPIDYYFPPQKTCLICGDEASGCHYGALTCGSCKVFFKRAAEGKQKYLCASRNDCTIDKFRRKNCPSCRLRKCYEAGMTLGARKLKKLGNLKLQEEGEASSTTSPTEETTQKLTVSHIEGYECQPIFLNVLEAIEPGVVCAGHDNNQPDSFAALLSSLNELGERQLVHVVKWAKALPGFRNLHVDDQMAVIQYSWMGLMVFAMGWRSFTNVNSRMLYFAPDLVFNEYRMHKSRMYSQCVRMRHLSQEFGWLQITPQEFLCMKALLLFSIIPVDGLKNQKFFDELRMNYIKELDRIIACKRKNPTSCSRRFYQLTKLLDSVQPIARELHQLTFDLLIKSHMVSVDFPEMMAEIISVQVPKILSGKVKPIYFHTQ
Briefly: LNCaP-AR-F876L AG: ARE luciferase reporter assay, agonist mode. In kind it is cell-based. The settings on record: maximum % stimulation (agonist response), % of 1 μM R-1881 max. On the procedure: (§1) A stable pooled-population cell line was generated using puromycin (Life Technologies) selection at 1:10,000 v/v. The protocol below was used for both cell lines and for testing of the compounds of Formula (I) of the present invention.
(§2) LNCaP cells were grown to about 80% confluence, media removed and cells rinsed in Hank's balanced salt solution prior to separation from the plate with 0.05% Trypsin EDTA. Cells were lifted and trypsin negated in complete CSS (charcoal stripped serum) culture media. […] Agonist challenge was at 400 pM for WT assay and 600 pM for F876L assay. Plates containing cells and compounds herein were incubated for a further 20-24 hours at 37° C., 5% CO2 before addition of 40 μL/well of Steady-Glo Luciferase Assay System Reagent (Promega# E2520). After 1 h, plates were read for luminescence on a BMG Pherastar.
(§3) EC/IC50 calculations were achieved utilizing calculated RLU data and data fitting macros. Data were fit using least-squares methods to the following formula: […]
(§4) As used herein: pIC50 is defined as—Log10(IC50 expressed in [Molar]). pEC50 is defined as—Log10(EC50 expressed in [Molar]). […] LNCaP-AR-wt ANT refers to the reporter assay using LNCaP cells stably transfected with the Androgen Response Element Firefly Luciferase lentiviral construct and wild-type Androgen Receptor (AR-wt) in Antagonist mode. LNCaP-AR-wt AG refers to the reporter assay using LNCaP cells stably transfected with the Androgen Response Element Firefly Luciferase lentiviral construct and wild-type Androgen Receptor (AR-wt) in Agonist mode. LNCaP-AR-F876L ANT refers to the reporter assay using LNCaP cells stably transfected with the Androgen Response Element Firefly Luciferase lentiviral construct and F876L mutant Androgen Receptor (AR-F876L) in Antagonist mode. LNCaP-AR-F876L AG refers to the reporter assay using LNCaP cells stably transfected with the Androgen Response Element Firefly Luciferase lentiviral construct and F876L mutant Androgen Receptor (AR-F876L) in Agonist mode.
(In general: A reporter such as luciferase makes a cellular process visible.)

In test [2] the target is T2, wild-type Androgen Receptor (AR-wt) (Homo sapiens, UniProt P10275).
T2 construct: expressed in transfected cells; host or cells: LNCaP AR (cs) cells with ARE firefly luciferase lentiviral construct
T2 sequence (P10275 1-920): T1 sequence (P10275 1-920 F877L) with L877F
Briefly: LNCaP-AR-wt AG: ARE luciferase reporter assay, agonist mode. The settings on record: maximum % stimulation (agonist response), % of 1 μM R-1881 max. The format is cell-based. On the procedure: as §1, §2, §3, §4

Regarding `N#Cc1ncc(N2C(=O)C3(CCC3)N(c3ccc(OCCCN4CCCC4)c(F)c3)C2=S)cc1C(F)(F)F` [Cpd 55, 5-[8-[3-fluoro-4-(3-pyrrolidin-1-ylpropoxy)phenyl]-5-oxo-7-thioxo-6,8-diazaspiro[3.4]octan-6-yl]-3-(trifluoromethyl)pyridine-2-carbonitrile], the “LNCaP-AR-F876L AG MAX % Stim” value in test [1] worked out at 0.6%. Besides, the “LNCaP-AR-wt AG MAX % Stim” value in test [2] stood at 0.7%.

For the molecule `N#Cc1ncc(N2C(=O)C3(CCC3)N(c3ccc(C(=O)NCCCc4ccccc4)c(F)c3)C2=S)cc1C(F)(F)F` [Cpd 57, 4-[6-[6-cyano-5-(trifluoromethyl)-3-pyridyl]-5-oxo-7-thioxo-6,8-diazaspiro[3.4]octan-8-yl]-2-fluoro-N-(3-phenylpropyl)benzamide], the “LNCaP-AR-F876L AG MAX % Stim” value in test [1] amounted to 0.5%. In test [2], the “LNCaP-AR-wt AG MAX % Stim” value amounted to 0.0%.

On to `N#Cc1ncc(N2C(=O)C3(CCC3)N(c3ccc(C(=O)NCc4cccs4)c(F)c3)C2=S)cc1C(F)(F)F` [Cpd 59, 4-[6-[6-cyano-5-(trifluoromethyl)-3-pyridyl]-5-oxo-7-thioxo-6,8-diazaspiro[3.4]octan-8-yl]-2-fluoro-N-(2-thienylmethyl)benzamide], for which, in test [1], the “LNCaP-AR-F876L AG MAX % Stim” value worked out at 0.7%. For the same molecule, the “LNCaP-AR-wt AG MAX % Stim” value in test [2] was 1.5%.

Regarding `Cc1cc(N2C(=O)C3(CCC3)N(c3ccc(Oc4ccncn4)cc3)C2=S)cnc1C#N` [Cpd 62, 3-methyl-5-[5-oxo-8-(4-pyrimidin-4-yloxyphenyl)-7-thioxo-6,8-diazaspiro[3.4]octan-6-yl]pyridine-2-carbonitrile], the “LNCaP-AR-F876L AG MAX % Stim” value in test [1] worked out at 0.4%. Also, the “LNCaP-AR-wt AG MAX % Stim” value in test [2] is reported as 0.8%.

Consider `Cc1cc(N2C(=O)C3(CCC3)N(c3ccc(C(=O)Nc4nccs4)c(F)c3)C2=S)cnc1C#N` [Cpd 63, 4-[6-(6-cyano-5-methyl-3-pyridyl)-5-oxo-7-thioxo-6,8-diazaspiro[3.4]octan-8-yl]-2-fluoro-N-thiazol-2-yl-benzamide], for which the “LNCaP-AR-F876L AG MAX % Stim” value in test [1] is on record as 0.3%. Also, in test [2], the “LNCaP-AR-wt AG MAX % Stim” value is listed as 0.7%.

Take `N#Cc1ncc(N2C(=O)C3(CCC3)N(c3ccc(C(=O)NCc4cccnc4)c(F)c3)C2=S)cc1C(F)(F)F` [Cpd 67, 4-[6-[6-cyano-5-(trifluoromethyl)-3-pyridyl]-5-oxo-7-thioxo-6,8-diazaspiro[3.4]octan-8-yl]-2-fluoro-N-(3-pyridylmethyl)benzamide]: the “LNCaP-AR-F876L AG MAX % Stim” value in test [1] was found to be 0.8%. Further, the “LNCaP-AR-wt AG MAX % Stim” value in test [2] came to 1.5%.

As for `CCCNC(=O)c1ccc(N2C(=S)N(c3cnc(C#N)c(C(F)(F)F)c3)C(=O)C23CCC3)cc1F` [Cpd 68, 4-[6-[6-cyano-5-(trifluoromethyl)-3-pyridyl]-5-oxo-7-thioxo-6,8-diazaspiro[3.4]octan-8-yl]-2-fluoro-N-propyl-benzamide], the “LNCaP-AR-F876L AG MAX % Stim” value in test [1] is on record as 0.9%. The “LNCaP-AR-wt AG MAX % Stim” value in test [2] amounted to 0.2%.

Take `N#Cc1ncc(N2C(=O)C3(CCC3)N(c3ccccc3)C2=S)cc1C(F)(F)F` [Cpd 70, 5-(5-oxo-8-phenyl-7-thioxo-6,8-diazaspiro[3.4]octan-6-yl)-3-(trifluoromethyl)pyridine-2-carbonitrile]: the “LNCaP-AR-F876L AG MAX % Stim” value in test [1] came to 0.9%. Moreover, in test [2], the “LNCaP-AR-wt AG MAX % Stim” value turned out to be 0.3%.

Turning to `N#Cc1ncc(N2C(=O)C3(CCC3)N(c3ccc(Oc4ccncn4)cc3)C2=S)cc1C(F)(F)F` [Cpd 71, 5-[5-oxo-8-(4-pyrimidin-4-yloxyphenyl)-7-thioxo-6,8-diazaspiro[3.4]octan-6-yl]-3-(trifluoromethyl)pyridine-2-carbonitrile], in test [1], the “LNCaP-AR-F876L AG MAX % Stim” value turned out to be 0.9%. Further, the “LNCaP-AR-wt AG MAX % Stim” value in test [2] was determined as 0.5%.

For the molecule `N#Cc1ncc(N2C(=O)C3(CCC3)N(c3ccc(C(=O)NCCCN4CCOCC4)c(F)c3)C2=S)cc1C(F)(F)F` [Cpd 72, 4-[6-[6-cyano-5-(trifluoromethyl)-3-pyridyl]-5-oxo-7-thioxo-6,8-diazaspiro[3.4]octan-8-yl]-2-fluoro-N-(3-morpholinopropyl)benzamide], the “LNCaP-AR-F876L AG MAX % Stim” value in test [1] is reported as 0.6%. For the same molecule, the “LNCaP-AR-wt AG MAX % Stim” value in test [2] came to 0.3%.

Consider `Cc1ccc(NC(=O)c2ccc(N3C(=S)N(c4cnc(C#N)c(C)c4)C(=O)C34CCC4)cc2F)cn1` [Cpd 75, 4-[6-(6-cyano-5-methyl-3-pyridyl)-5-oxo-7-thioxo-6,8-diazaspiro[3.4]octan-8-yl]-2-fluoro-N-(6-methyl-3-pyridyl)benzamide], for which, in test [1], the “LNCaP-AR-F876L AG MAX % Stim” value is 0.8%. Also, the “LNCaP-AR-wt AG MAX % Stim” value in test [2] came to 0.8%.

As to `N#Cc1ncc(N2C(=O)C3(CCC3)N(c3cccc(CO)c3)C2=S)cc1C(F)(F)F` [Cpd 81, 5-[8-[3-(hydroxymethyl)phenyl]-5-oxo-7-thioxo-6,8-diazaspiro[3.4]octan-6-yl]-3-(trifluoromethyl)pyridine-2-carbonitrile], the “LNCaP-AR-F876L AG MAX % Stim” value in test [1] was found to be 1.2%. For the same molecule, in test [2], the “LNCaP-AR-wt AG MAX % Stim” value turned out to be 0.7%.

Consider `Cc1cc(N2C(=O)C3(CCC3)N(c3ccc(OC4CCOCC4)cc3)C2=S)cnc1C#N` [Cpd 87, 3-methyl-5-[5-oxo-8-(4-tetrahydropyran-4-yloxyphenyl)-7-thioxo-6,8-diazaspiro[3.4]octan-6-yl]pyridine-2-carbonitrile], for which the “LNCaP-AR-F876L AG MAX % Stim” value in test [1] amounted to 0.9%. For the same molecule, the “LNCaP-AR-wt AG MAX % Stim” value in test [2] is reported as 1.1%.

`N#Cc1ncc(N2C(=O)C3(CCC3)N(c3ccc(Oc4cncnc4)cc3)C2=S)cc1C(F)(F)F` [Cpd 88, 5-[5-oxo-8-(4-pyrimidin-5-yloxyphenyl)-7-thioxo-6,8-diazaspiro[3.4]octan-6-yl]-3-(trifluoromethyl)pyridine-2-carbonitrile]: the “LNCaP-AR-F876L AG MAX % Stim” value in test [1] came out at 0.7%. Also, the “LNCaP-AR-wt AG MAX % Stim” value in test [2] is 0.7%.

Consider `N#Cc1ncc(N2C(=O)C3(CCC3)N(c3ccc4[nH]ncc4c3)C2=S)cc1C(F)(F)F` [Cpd 92, 5-[8-(1H-indazol-5-yl)-5-oxo-7-thioxo-6,8-diazaspiro[3.4]octan-6-yl]-3-(trifluoromethyl)pyridine-2-carbonitrile], for which the “LNCaP-AR-F876L AG MAX % Stim” value in test [1] turned out to be 1.3%. Besides, in test [2], the “LNCaP-AR-wt AG MAX % Stim” value worked out at 2.8%.
